According to patent publication US9920032B2, “Heterocyclic compounds useful as pim kinase inhibitors” (Incyte Corporation, priority 2015, dated 2018):

Assays:
Assay type in all cases: biochemical
[1] = target: Pim-3 (Homo sapiens (Human), UniProt Q86V86); test: Pim-3 kinase assay; details: 1 mM ATP; read-out: PIM3 IC50
How it was run: (§1)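 Biotin-BAD peptide (0.05 μM) phosphorylated with 1 mM ATP by 2.5 pM Pim-1 or 1.25 pM Pim-3 in Tris pH 7.5/MgCl2/DTT buffer, 1 h at 25° C. EDTA stop; phospho-BAD (Ser112) antibody with streptavidin donor and Protein-A acceptor beads, 1 h dark at room temperature before AlphaScreen-type bead read.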

[2] = target: Pim-2 (Homo sapiens (Human), UniProt Q9P1W9); test: Pim-2 kinase assay; details: 1 mM ATP; read-out: PIM2 IC50
Sequence of Pim-2 (Q9P1W9 whole entry): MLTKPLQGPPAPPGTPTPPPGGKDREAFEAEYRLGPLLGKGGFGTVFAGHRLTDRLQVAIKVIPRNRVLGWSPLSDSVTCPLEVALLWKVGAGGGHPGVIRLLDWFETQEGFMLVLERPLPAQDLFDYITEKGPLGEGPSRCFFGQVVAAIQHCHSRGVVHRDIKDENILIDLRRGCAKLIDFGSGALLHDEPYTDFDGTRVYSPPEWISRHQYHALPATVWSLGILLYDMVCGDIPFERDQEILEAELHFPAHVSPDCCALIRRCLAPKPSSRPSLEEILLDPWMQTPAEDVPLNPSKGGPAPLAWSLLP
How it was run: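 TR-FRET assay with 1 nM enzyme, 0.05 μM fluorescein-CREBtide and 1 mM ATP in Tris pH 7.5 buffer with MgCl2, DTT, BSA and Tween-20, run 2 h at 25° C. Stopped with EDTA and Tb-labelled anti-CREB pSer133 antibody, then read after 30 min at room temperature.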

[3] = target: Pim-1 (Homo sapiens (Human), UniProt P11309); test: Pim-1 kinase assay; details: 1 mM ATP; read-out: PIM1 IC50
Sequence of Pim-1 (P11309 whole entry): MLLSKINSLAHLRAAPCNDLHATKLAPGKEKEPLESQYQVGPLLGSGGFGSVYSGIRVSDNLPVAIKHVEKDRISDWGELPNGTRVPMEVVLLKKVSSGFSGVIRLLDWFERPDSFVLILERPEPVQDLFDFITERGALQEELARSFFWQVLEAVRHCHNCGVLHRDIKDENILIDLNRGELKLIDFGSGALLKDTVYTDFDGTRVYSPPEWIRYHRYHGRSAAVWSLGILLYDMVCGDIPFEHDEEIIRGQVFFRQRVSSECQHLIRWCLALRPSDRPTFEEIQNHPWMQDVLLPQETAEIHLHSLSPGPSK
How it was run: as §1

| Compound | IC50 [1] [nM] | IC50 [2] [nM] | IC50 [3] [nM] |
| --- | --- | --- | --- |
| C[C@@H]1C[C@H](N)C[C@H](c2ccncc2NC(=O)c2ccc(F)c3cc(N(C)c4ccc5nccn5c4)cnc23)C1 [Example 153] | ≤ 10 | 100 to 1000 | ≤ 10 |
| C[C@@H]1C[C@H](N)C[C@H](c2ccncc2NC(=O)c2ccc(F)c3cc(N(C)[C@@H]4CCOC4)cnc23)C1 [Example 154, N-(4-((1R,3S,5S)-3-Amino-5-methylcyclohexyl)pyridin-3-yl)-5-fluoro-3-(methyl((R)-tetrahydrofuran-3-yl)amino)quinoline-8-carboxamide] | ≤ 10 | 100 to 1000 | ≤ 10 |
| CO[C@@H]1C[C@H](C)N(c2cnc3c(C(=O)Nc4cnccc4[C@@H]4C[C@H](C)C[C@H](N)C4)ccc(F)c3c2)C1 [Example 155, N-(4-((1R,3S,5S)-3-Amino-5-methylcyclohexyl]pyridin-3-yl}-5-fluoro-3-[(2S,4R)-4-methoxy-2-methylpyrrolidin-1-yl]quinoline-8-carboxamide] | ≤ 10 | ≤ 100 | ≤ 10 |
| CO[C@@H]1C[C@@H](C)N(c2cnc3c(C(=O)Nc4cnccc4[C@@H]4C[C@H](C)C[C@H](N)C4)ccc(F)c3c2)C1 [Example 156] | ≤ 10 | ≤ 100 | ≤ 10 |
| CO[C@H]1C[C@H](C)N(c2cnc3c(C(=O)Nc4cnccc4[C@@H]4C[C@H](C)C[C@H](N)C4)ccc(F)c3c2)C1 [Example 157, N-(4-((1R,3S,5S)-3-Amino-5-methylcyclohexyl)pyridin-3-yl)-5-fluoro-3-((2S,4S)-4-methoxy-2-methylpyrrolidin-1-yl)quinoline-8-carboxamide] | ≤ 10 | ≤ 100 | ≤ 10 |
| CO[C@H]1C[C@@H](C)N(c2cnc3c(C(=O)Nc4cnccc4[C@@H]4C[C@H](C)C[C@H](N)C4)ccc(F)c3c2)C1 [Example 158, N-(4-((1R,3S,5S)-3-Amino-5-methylcyclohexyl)pyridin-3-yl)-5-fluoro-3-((2R,4S)-4-methoxy-2-methylpyrrolidin-1-yl)quinoline-8-carboxamide] | ≤ 10 | ≤ 100 | ≤ 10 |
| CO[C@H]1CCN(c2cnc3c(C(=O)Nc4cnccc4[C@@H]4C[C@H](C)C[C@H](N)C4)ccc(F)c3c2)[C@H](C)C1 [Example 159, N-(4-((1R,3S,5S)-3-Amino-5-methylcyclohexyl)pyridin-3-yl)-5-fluoro-3-((2R,4S)-4-methoxy-2-methylpiperidin-1-yl)quinoline-8-carboxamide] | ≤ 10 | ≤ 100 | ≤ 10 |
| CO[C@@H]1CCN(c2cnc3c(C(=O)Nc4cnccc4[C@@H]4C[C@H](C)C[C@H](N)C4)ccc(F)c3c2)[C@@H](C)C1 [Example 160, N-(4-((1R,3S,5S)-3-Amino-5-methylcyclohexyl)pyridin-3-yl)-5-fluoro-3-((2S,4R)-4-methoxy-2-methylpiperidin-1-yl)quinoline-8-carboxamide] | ≤ 10 | ≤ 100 | ≤ 10 |
| CO[C@@H]1CCN(c2cnc3c(C(=O)Nc4cnccc4[C@@H]4C[C@H](C)C[C@H](N)C4)ccc(F)c3c2)[C@H](C)C1 [Example 161, N-(4-((1R,3S,5S)-3-Amino-5-methylcyclohexyl)pyridin-3-yl)-5-fluoro-3-((2R,4R)-4-methoxy-2-methylpiperidin-1-yl)quinoline-8-carboxamide] | ≤ 10 | ≤ 100 | ≤ 10 |
| CO[C@@H]1CCN(c2cnc3c(C(=O)Nc4cnccc4[C@@H]4C[C@H](C)C[C@H](N)C4)ccc(F)c3c2)C[C@H]1F [Example 162, N-(4-((1R,3S,5S)-3-Amino-5-methylcyclohexyl)pyridin-3-yl)-5-fluoro-3-((3R,4R)-3-fluoro-4-methoxypiperidin-1-yl)quinoline-8-carboxamide] | ≤ 10 | ≤ 100 | ≤ 10 |
| COCCO[C@H]1CCN(c2cnc3c(C(=O)Nc4cnccc4[C@@H]4C[C@H](C)C[C@H](N)C4)ccc(F)c3c2)C[C@@H]1F [Example 163] | ≤ 10 | ≤ 100 | ≤ 10 |
| C[C@@H]1C[C@H](N)C[C@H](c2ccncc2NC(=O)c2ccc(F)c3cc(N4C[C@@H](O)C[C@H]4C)cnc23)C1 [Example 164, N-(4-((1R,3S,5S)-3-Amino-5-methylcyclohexyl]pyridin-3-yl}-5-fluoro-3-[(2R,4S)-4-hydroxy-2-methylpyrrolidin-1-yl]quinoline-8-carboxamide] | ≤ 10 | ≤ 100 | ≤ 10 |
| C[C@@H]1C[C@H](N)C[C@H](c2ccncc2NC(=O)c2ccc(F)c3cc(N4C[C@@H](O)C[C@@H]4C)cnc23)C1 [Example 165, N-(4-((1R,3S,5S)-3-Amino-5-methylcyclohexyl)pyridin-3-yl)-5-fluoro-3-((2S,4S)-4-hydroxy-2-methylpyrrolidin-1-yl)quinoline-8-carboxamide] | ≤ 10 | ≤ 100 | ≤ 10 |
| C[C@@H]1C[C@H](N)C[C@H](c2ccncc2NC(=O)c2ccc(F)c3cc(N4CC[C@@H]4C)cnc23)C1 [Example 166, N-(4-((1R,3S,5S)-3-Amino-5-methylcyclohexyl)pyridin-3-yl)-5-fluoro-3-((S)-2-methylazetidin-1-yl)quinoline-8-carboxamide] | ≤ 10 | ≤ 100 | ≤ 10 |
| C[C@@H]1C[C@H](N)C[C@H](c2ccncc2NC(=O)c2ccc(F)c3cc(N4CC[C@H]4C)cnc23)C1 [Example 167, N-(4-((1R,3S,5S)-3-Amino-5-methylcyclohexyl)pyridin-3-yl)-5-fluoro-3-((R)-2-methylazetidin-1-yl)quinoline-8-carboxamide] | ≤ 10 | ≤ 100 | ≤ 10 |
| CCOC(=O)N1CCN(c2cnc3c(C(=O)Nc4cnccc4[C@@H]4C[C@H](C)C[C@H](N)C4)ccc(F)c3c2)CC1 [Example 168, Ethyl 4-(8-(4-((1R,3S,5S)-3-amino-5-methylcyclohexyl)pyridin-3-ylcarbamoyl)-5-fluoroquinolin-3-yl)piperazine-1-carboxylate] | ≤ 10 | 100 to 1000 | ≤ 10 |
| C[C@@H]1C[C@H](N)C[C@H](c2ccncc2NC(=O)c2ccc(F)c3cc(N4CCCC[C@H]4C)cnc23)C1 [Example 169, N-(4-((1R,3S,5S)-3-Amino-5-methylcyclohexyl)pyridin-3-yl)-5-fluoro-3-((R)-2-methylpiperidin-1-yl)quinoline-8-carboxamide] | ≤ 10 | ≤ 100 | ≤ 10 |
| C[C@@H]1C[C@H](N)C[C@H](c2ccncc2NC(=O)c2ccc(F)c3cc(N4CCCC[C@@H]4C)cnc23)C1 [Example 170, N-(4-((1R,3S,5S)-3-Amino-5-methylcyclohexyl)pyridin-3-yl)-5-fluoro-3-((S)-2-methylpiperidin-1-yl)quinoline-8-carboxamide] | 10 to 50 | 100 to 1000 | ≤ 10 |
